{"source": "paper PMC7819857", "about": "“Identification of Inhibitors of Integrin Cytoplasmic Domain Interactions With Syk” (Frontiers in Immunology, 2021)", "key": {"full-length Syk": {"molecular_target": "T1, full-length Syk (Homo sapiens, UniProt P43405)", "T1 construct": "ceftazidime had no effect on the catalytic function of full-length Syk", "assay": "Syk kinase activity assay", "format": "biochemical", "conditions": "100 uM, 100-fold higher than the AlphaScreen IC50", "source_text": "Figure 6 Selective inhibition of integrin signaling by ceftazidime. (A) Schematic illustration of the pITAM-Syk AlphaScreen used to test antagonist selectivity. (B) Comparison between ceftazidime (Ctaz) and pITAM peptide inhibition of pITAM-Syk binding in the AlphaScreen assay described in (A). […] Data are expressed as mean ± range from duplicate determinations. One of four representative assays is shown. (C) Effect of ceftazidime on Syk kinase activity. Ceftazidime (Ctaz) or Syk inhibitor P505-15 was used at 100 uM. Kinase activity is expressed as percent of maximum signal. Data are expressed as mean ± SEM (n = 3). **p < 0.01 (D) Selective effects of ceftazidime on integrin signaling. […] Phosphorylation of Syk (left and right panel) and Pyk-2 (center panel) was analyzed by immunoprecipitation and western blot. […] Quantification is shown below (left panel, n = 5; center panel, n = 3; right panel, n = 3), normalized to phosphorylation in suspension. Results are expressed as the mean ± SEM. […] Expression of interleukin (IL)-1β and monocyte chemoattractant protein (MCP)-1 genes was examined by quantitative real-time polymerase chain reaction. Data are expressed as expression levels relative to control cells kept in suspension. […] P-values were calculated by the Student t test. […]"}, "[1]": {"tested_on": "FcγRI signaling via Syk in THP-1 cells", "assay": "FcγRI-crosslinking-induced phosphorylation of Syk in THP-1 cells", "format": "cell-based, human", "conditions": "100 µM loaded cells, anti-FcγRI mAb 276426", "protocol": "Syk phosphorylation assays were performed by immobilizing vascular cell adhesion molecule-1 (VCAM)-1 (3 ug/ml), CS-1-BSA (10 ug/ml), or specific monoclonal antibodies (anti-FcγRI mAb 276426, anti-α4β1 mAb 19H8, anti-β2 mAb 76C3, anti-αvβ3 mAb LM609 all at 5 ug/ml) overnight at 4°C in Tris-HCl pH 7.5, 150 mM NaCl, in 6-well plates (non-tissue culture treated, Becton Dickenson, cat# BD351146). Plates were then blocked with BSA (2% w/v) for 1 h at room temperature. […] After electrophoresis, proteins were transferred to nitrocellulose for 1 h 100 V room temperature, blocked in 5% non-fat milk in TBS-T, and probed with the indicated primary antibody at 1:1,000 overnight at 4°C, followed by species-appropriate HRP secondary antibody (Southern Biotech) at 1:5,000 (30 min at room temperature), and detected using Pierce West Pico (Thermo Scientific cat# 34580). […]\nFigure 6 Selective inhibition of integrin signaling by ceftazidime. […] Data are expressed as mean ± range from duplicate determinations. […] Kinase activity is expressed as percent of maximum signal. Data are expressed as mean ± SEM (n = 3). **p < 0.01 (D) Selective effects of ceftazidime on integrin signaling. […] Phosphorylation of Syk (left and right panel) and Pyk-2 (center panel) was analyzed by immunoprecipitation and western blot. […] Results are expressed as the mean ± SEM. […]"}}, "data": [{"smiles": "CC(C)(O/N=C(\\C(=O)N[C@@H]1C(=O)N2C(C(=O)[O-])=C(C[n+]3ccccc3)CS[C@H]12)c1csc(N)n1)C(=O)O", "note": "[ceftazidime]", "values": [{"measurement": "effect on the catalytic function of full-length Syk", "setting": "full-length Syk", "result": "no effect"}, {"measurement": "tyrosine phosphorylation of Syk on FcγRI crosslinking", "setting": "[1]", "result": "not inhibited"}]}]}
